The values that follow come from publication PMC5159837, “Novel inhibitors of Mycobacterium tuberculosis GuaB2 identified by a target based high-throughput phenotypic screen” (Scientific Reports, 2016).

What is called inhibition is the percentage by which the read-out fell short of the control. Usually MIC stands for the smallest concentration in the dilution series that meets the test's criterion for growth inhibition. Low readings indicate inhibition by little substance, high ones a need for much substance.

In brackets after ≈: the same amount, converted by molar mass. Several values for one entry are separate records, joined by “and”; a condition that tells them apart may be missing. Equal entries are not always repeated. Where two headings read alike, the source gives them in different places. Some results are limits rather than exact numbers.

Assay [1] concerns the target T1, Mtb GuaB2 (Mycobacterium tuberculosis, UniProt P9WKI7).
T1 construct: made in house
Description: Biochemical assay of GuaB2 inhibition. Particulars: duplicate, mean. Here is the method: The Mtb ortholog of the enzyme was recombinantly expressed, purified and assayed as previously described. Inhibition was determined at 0.1 mM, using 12 μg GuaB2 with the addition of 0.5% CHAPS. Each assay was normalised for DMSO concentration. Data was recorded in duplicate and analysed using Graphpad Prism 6.0.

Assay [2] concerns M. bovis BCG pMV261. As to the kind of experiment: microbe, parasite or virus in culture. It is filed as cell-based. The settings on record: Mycobacterium tuberculosis variant bovis BCG, 168 h, read-out: pXC50 for Empty Vector (converted).
The test system of assay [3] is M. bovis BCG pMV261-guaB2. Description: microbe, parasite or virus in culture. The class given is cell-based, Mycobacterium bovis BCG. The settings on record: for IC50: Mycobacterium tuberculosis variant bovis BCG, BCG, 168 h, 7 days, read-out: pXC50 Mean for GuaB2 (converted).
Assay [4] relates to M. tuberculosis H37Rv. As to the kind of experiment: MIC against H37Rv. It is filed as cell-based. Particulars: Mycobacterium tuberculosis. The source says: Table 1 Z’ and pXC50 values for dose response validation of GuaB2 targeting compounds.
[5] abbreviates: 0.1 mM compound, 12 μg GuaB2, 0.5% CHAPS.
Setting [6] is: 0.1 mM compound, 12 μg GuaB2, 0.5% CHAPS, read-out: % Biochemical Inhibition of Mtb GuaB2.
Setting [7] is: read-out: % Biochemical Inhibition of Mtb GuaB2, 0.1 mM compound, 12 μg GuaB2, 0.5% CHAPS.

T1 sequence (P9WKI7 whole entry, looked up): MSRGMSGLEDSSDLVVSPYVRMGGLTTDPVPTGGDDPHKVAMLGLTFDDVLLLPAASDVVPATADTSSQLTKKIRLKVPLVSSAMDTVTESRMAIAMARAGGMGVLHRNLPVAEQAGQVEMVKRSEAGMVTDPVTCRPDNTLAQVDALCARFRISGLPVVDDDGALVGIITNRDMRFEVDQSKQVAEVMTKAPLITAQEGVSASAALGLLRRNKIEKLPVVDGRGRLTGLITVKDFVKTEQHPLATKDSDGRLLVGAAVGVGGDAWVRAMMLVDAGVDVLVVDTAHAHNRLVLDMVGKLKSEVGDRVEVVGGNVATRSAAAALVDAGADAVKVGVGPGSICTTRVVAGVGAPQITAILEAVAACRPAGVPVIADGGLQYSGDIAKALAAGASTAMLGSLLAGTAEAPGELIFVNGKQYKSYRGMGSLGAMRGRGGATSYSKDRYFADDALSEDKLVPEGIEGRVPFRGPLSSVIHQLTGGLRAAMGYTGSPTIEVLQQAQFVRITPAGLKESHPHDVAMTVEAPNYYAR

Regarding `NNC(=O)c1ccncc1` [INH, isoniazid, reference compound], the “% Biochemical Inhibition of Mtb GuaB2” value in assay [1] (setting [5]) is −9% and −8.88%.
`Cc1ccc([N+](=O)[O-])cc1NC(=O)Nc1cccc(Cl)c1` [DPU-2, reference compound]: the inhibition at 100 µM in assay [1] (setting [6]) is 44.6%.
In the case of `CC(=O)Nc1ccc(-c2ccc3ncc(N4CCN(C)CC4)nc3c2)cn1` [JAGC_1, N-(5-(3-(4-methylpiperazin-1-yl)quinoxalin-6-yl)pyridin-2-yl)acetamide], the results for the IC50 in assay [2] and in assay [3] were 8.91 µM and at least 100 µM, respectively. Further, the “Shift pIC50” value in assay [3] amounted to 1.05. Moreover, the inhibition at 100 µM in assay [1] (setting [6]) was 23.1%. The same compound came in with an MIC in assay [4] of over 80 µM.
For `COc1ccc(Cl)c2sc(N(CCN(C)C)C(C)=O)nc12` [JAGC_4, N-(7-chloro-4-methoxybenzo[d]thiazol-2-yl)-N-(2-(dimethylamino)ethyl)acetamide] the same measures were 22.9 µM, at least 100 µM, 0.64, 20.7% and over 80 µM.
For `COC(=O)c1c(NC(=O)N2CCNCC2)sc2c1CC(C)(C)OC2` [JAGC_3, methyl 5,5-dimethyl-2-(piperazine-1-carboxamido)-4,7-dihydro-5H-thieno[2,3-c]pyran-3-carboxylate] the same measures were 10.2 µM, at least 100 µM, 0.99, 21.8% and over 80 µM.
Take `CCOc1ccc(C(=O)Nc2cc(Cl)c3c(c2)CNCC3)cc1C(C)=O` [JAGC_2, 3-acetyl-N-(5-chloro-1,2,3,4-tetrahydroisoquinolin-7-yl)-4-ethoxybenzamide]: in assay [2], the IC50 is 8.32 µM. For the same compound, in assay [3], the “Shift pIC50” value is on record as 0.84 and the IC50 was 57.5 µM. Moreover, the “% Biochemical Inhibition of Mtb GuaB2” value in assay [1] (setting [5]) came out at 26.53%. Also, the inhibition at 100 µM in assay [1] (setting [7]) turned out to be 26.5%. In addition, the MIC in assay [4] was over 80 µM.
For `CC1CCC(NC(=O)Nc2ccc3snnc3c2)CC1` (stereo not drawn) [JAGC_7, 1-(benzo[d][1,2,3]thiadiazol-5-yl)-3-(4-methylcyclohexyl)urea], the IC50 in assay [2] is 4.17 µM. In assay [3], the “Shift pIC50” value is recorded as 0.37 and the IC50 was 9.77 µM. Besides, the inhibition at 100 µM in assay [1] (setting [6]) is 12.2%. This compound also came in with an MIC in assay [4] of 50 µM (≈ 14.5 µg/mL).
For `CC(C)CCN(c1ccc(C#N)c(Cl)c1)[C@H]1CCNC1` [JAGC_5, (S)-2-chloro-4-(isopentyl(pyrrolidin-3-yl)amino)benzonitrile] the same measures were 4.37 µM, 0.94, 38 µM, 20.6% and over 100 µM.
Turning to `Clc1cc2ccccc2c(N2CCNCC2)n1` [JAGC_6, 3-chloro-1-(piperazin-1-yl)isoquinoline], the IC50 in assay [2] is 3.8 µM. Besides, in assay [3], the “Shift pIC50” value is 1.07 and the IC50 was 44.7 µM. In addition, the “% Biochemical Inhibition of Mtb GuaB2” value in assay [1] (setting [5]) came to 15.44%. Further, the inhibition at 100 µM in assay [1] (setting [7]) came to 12.3%. The MIC in assay [4] was over 80 µM.
